Results reported in patent publication US8211662B2, “Nitroreductase enzymatic substrates” (Biomerieux, priority 2007, dated 2012).

Key:
[1] = system: Candida glabrata NCPF 3943; experiment: Nitroreductase detection on Columbia agar, colonies read under UV; type: cell-based; set-up: key to Intensity of fluorescence, Candida glabrata NCPF3943 / F: fluorescence (intensity), Candida glabrata NCPF 3943 / Intensity of the fluorescence, Candida glabrata NCPF 3943: − = no fluorescence detected; +/− = weak fluorescence; + = medium fluorescence; ++ = strong fluorescence; settings: 100 mg/l in Columbia agar, 24 h 37° C., UV 360-365 nm
Protocol: (§1) A mass of 40 mg of each substrate was dissolved in 4 ml of dimethylformamide (DMF). This solution was entirely taken up in 400 ml of Columbia agar autoclaved beforehand and kept molten at 50° C. The final concentration for each substrate was 100 mg/l.
(§2) Each of the media was distributed into Petri dishes 90 mm in diameter, in a proportion of 20 ml per dish.
(§3) 18 microorganism strains derived from collections and belonging to various species of bacteria and of yeasts were inoculated onto these media by semi-quantitative isolation of 10 μl of a suspension at 0.5 McFarland diluted to 1/20. The media were incubated for 24 hours at 37° C., then the colonies formed were examined visually under UV illumination at 360-365 nm.

[2] = system: Acinetobacter baumanii ATCC 19606; experiment: as above; type: cell-based; set-up: key to Intensity of fluorescence, Acinetobacter baumanii ATCC 19606 / Intensity of the fluorescence, Acinetobacter baumanii ATCC 19606: − = no fluorescence detected; +/− = weak fluorescence; + = medium fluorescence; ++ = strong fluorescence
Protocol: as §1, §2, §3

[3] = system: Morganella morganii 462403 (wild); experiment: as above; type: cell-based; set-up: key to Intensity of fluorescence, Morganella morganii 462403 / F: fluorescence (intensity), Morganella morganii 462403 (wild) / Intensity of the fluorescence, Morganella morganii 462403 (wild): − = no fluorescence detected; +/− = weak fluorescence; + = medium fluorescence; ++ = strong fluorescence; settings: 100 mg/l in Columbia agar, 24 h 37° C., UV 360-365 nm
Protocol: as §1, §2, §3

[4] = system: Salmonella typhimurium NCTC 74; experiment: as above; type: cell-based; set-up: key to Intensity of fluorescence, Salmonella typhimurium NCTC 74 / F: fluorescence (intensity), Salmonella typhimurium NCTC 74 / Intensity of the fluorescence, Salmonella typhimurium NCTC 74: − = no fluorescence detected; +/− = weak fluorescence; + = medium fluorescence; ++ = strong fluorescence
Protocol: as §1, §2, §3

[5] = system: MRSA NCTC 11939; experiment: as above; type: cell-based, Staphylococcus aureus; set-up: key: − = no fluorescence detected; +/− = weak fluorescence; + = medium fluorescence; ++ = strong fluorescence; settings: 100 mg/l in Columbia agar, 24 h 37° C., UV 360-365 nm
Protocol: as §1, §2, §3

[6] = system: Staph spp 12 strains; experiment: Detection of various strains of S. aureus in the presence of substrates; type: cell-based
[7] = system: S. aureus (including MRSA) 10 strains; experiment: as above; type: cell-based, Staphylococcus aureus; settings: for No. of strains detected, S. aureus (including MRSA): 10 strains
[8] = system: Enterococcus 6 strains; experiment: as above; type: cell-based
[9] = system: S. epidermidis 2 strains; experiment: as above; type: cell-based
Protocol: as §1, §2
18 microorganism strains derived from collections and belonging to various species of bacteria and of yeasts were inoculated onto these media by semi-quantitative isolation of 10 μl of a suspension at 0.5 McFarland diluted to 1/20. […]

[10] = system: Enterococcus faecalis NCTC 775; experiment: Nitroreductase detection on Columbia agar, colonies read under UV; type: cell-based; set-up: key: − = no fluorescence detected; +/− = weak fluorescence; + = medium fluorescence; ++ = strong fluorescence; settings: 100 mg/l in Columbia agar, 24 h 37° C., UV 360-365 nm
Protocol: as §1, §2, §3

[11] = system: Staphylococcus epidermidis NCTC 11047; experiment: as above; type: cell-based; set-up: key: − = no fluorescence detected; +/− = weak fluorescence; + = medium fluorescence; ++ = strong fluorescence; settings: 100 mg/l in Columbia agar, 24 h 37° C., UV 360-365 nm
Protocol: as §1, §2, §3

[12] = system: Pseudomonas aeruginosa NCTC 10662; experiment: as above; type: cell-based; set-up: key: − = no fluorescence detected; +/− = weak fluorescence; + = medium fluorescence; ++ = strong fluorescence; settings: 100 mg/l in Columbia agar, 24 h 37° C., UV 360-365 nm
Protocol: as §1, §2, §3

[13] = system: Candida albicans ATCC 90028; experiment: as above; type: cell-based; set-up: key: − = no fluorescence detected; +/− = weak fluorescence; + = medium fluorescence; ++ = strong fluorescence; settings: 100 mg/l in Columbia agar, 24 h 37° C., UV 360-365 nm
Protocol: as §1, §2, §3

[14] = system: Serratia marcescens NCTC 10211; experiment: as above; type: cell-based; set-up: key: − = no fluorescence detected; +/− = weak fluorescence; + = medium fluorescence; ++ = strong fluorescence; settings: 100 mg/l in Columbia agar, 24 h 37° C., UV 360-365 nm
Protocol: as §1, §2, §3

[15] = system: Escherichia coli NCTC 10418; experiment: as above; type: cell-based; set-up: key: − = no fluorescence detected; +/− = weak fluorescence; + = medium fluorescence; ++ = strong fluorescence; settings: 100 mg/l in Columbia agar, 24 h 37° C., UV 360-365 nm
Protocol: as §1, §2, §3

[16] = system: Listeria monocytogenes NCTC 11994; experiment: as above; type: cell-based; set-up: key: − = no fluorescence detected; +/− = weak fluorescence; + = medium fluorescence; ++ = strong fluorescence; settings: 100 mg/l in Columbia agar, 24 h 37° C., UV 360-365 nm
Protocol: as §1, §2, §3

[17] = system: Streptococcus pyogenes NCTC 8306; experiment: as above; type: cell-based; set-up: key: − = no fluorescence detected; +/− = weak fluorescence; + = medium fluorescence; ++ = strong fluorescence; settings: 100 mg/l in Columbia agar, 24 h 37° C., UV 360-365 nm
Protocol: as §1, §2, §3

[18] = system: Enterobacter cloacae NCTC 11936; experiment: as above; type: cell-based; set-up: key: − = no fluorescence detected; +/− = weak fluorescence; + = medium fluorescence; ++ = strong fluorescence; settings: 100 mg/l in Columbia agar, 24 h 37° C., UV 360-365 nm
Protocol: as §1, §2, §3

[19] = system: Yersinia enterocolitica NCTC 11176; experiment: as above; type: cell-based; set-up: key: − = no fluorescence detected; +/− = weak fluorescence; + = medium fluorescence; ++ = strong fluorescence; settings: 100 mg/l in Columbia agar, 24 h 37° C., UV 360-365 nm
Protocol: as §1, §2, §3

[20] = system: Bacillus subtilis NCTC 9372; experiment: as above; type: cell-based; set-up: key: − = no fluorescence detected; +/− = weak fluorescence; + = medium fluorescence; ++ = strong fluorescence; settings: 100 mg/l in Columbia agar, 24 h 37° C., UV 360-365 nm
Protocol: as §1, §2, §3

[21] = system: Staphylococcus aureus NCTC 6571; experiment: as above; type: cell-based; set-up: key: − = no fluorescence detected; +/− = weak fluorescence; + = medium fluorescence; ++ = strong fluorescence; settings: 100 mg/l in Columbia agar, 24 h 37° C., UV 360-365 nm
Protocol: as §1, §2, §3

[22] = 100 mg/l in Columbia agar, 24 h 37° C., UV 360-365 nm

Intensity of fluorescence, Acinetobacter baumanii ATCC 19606 [2, 22]: +
Intensity of fluorescence, Morganella morganii 462403 [3]: ++
Intensity of fluorescence, Salmonella typhimurium NCTC 74 [4, 22]: ++
Salmonella typhimurium result with the substrate ([4]; table 2): strongly positive
Intensity of fluorescence, Enterococcus faecalis NCTC 775 [10]: −
Intensity of fluorescence, Pseudomonas aeruginosa NCTC 10662 [12]: −
Intensity of fluorescence, Serratia marcescens NCTC 10211 [14]: ++
Intensity of fluorescence, Listeria monocytogenes NCTC 11994 [16]: −
Intensity of fluorescence, Streptococcus pyogenes NCTC 8306 [17]: −
Intensity of fluorescence, Enterobacter cloacae NCTC 11936 [18]: ++
Intensity of fluorescence, Bacillus subtilis NCTC 9372 [20]: −
SMILES: O=[N+]([O-])c1ccc(F)cc1-c1nc2ccccc2o1 [Substrate 7]
Intensity of fluorescence, Candida glabrata NCPF3943 [1]: −
Distinguishing Pseudomonas aeruginosa from Acinetobacter baumanii ([2]; table 2): make it possible to distinguish Pseudomonas aeruginosa from Acinetobacter baumanii
Intensity of fluorescence, Staphylococcus aureus NCTC 11939 [5]: ++
No. of strains detected, Staph spp ([6]; 24 h): 12
No. of strains detected, Staph spp ([6]; 48 h): 12
Distinguishing or identifying Staphylococcus aureus strains, in particular MRSA, from most of the other Gram-positive bacterial strains [7]: make it possible to distinguish or identify the Staphylococcus aureus strains
No. of strains detected, S. aureus (including MRSA) ([7]; 24 h): 10
No. of strains detected, S. aureus (including MRSA) ([7]; 48 h): 10
No. of strains detected, Enterococcus ([8]; 24 h): 0
No. of strains detected, Enterococcus ([8]; 48 h): 1
No. of strains detected, S. epidermidis ([9]; 24 h): 0
No. of strains detected, S. epidermidis ([9]; 48 h): 2
Intensity of fluorescence, Staphylococcus epidermidis NCTC 11047 [11]: −
Intensity of fluorescence, Candida albicans ATCC 90028 [13]: −
Intensity of fluorescence, Escherichia coli NCTC 10418 [15]: ++
Intensity of fluorescence, Yersinia enterocolitica NCTC 11176 [19]: −
Intensity of fluorescence, Staphylococcus aureus NCTC 6571 [21]: ++
